This passage reports IC80, nitrification inhibitory activity and ED50 results from patent US20260225970A1, “SOIL C[…] USE THEREOF” (priority 2020, published 2026).

Like-named read-outs stand apart in the source and are kept apart here.

This assay has as its system Nitrosomonas europaea IF014298. The experiment in a line: Bioluminescence nitrification inhibition assay using a nitrifying bacterium in vitro (luxAB-introduced Nitrosomonas europaea). In kind it is cell-based. The conditions noted are these: for IC80: IF014298, 0.5 h, read-out: Nitrification inhibitory activity ED80; for nitrification inhibitory activity: result in words, conclusion from the bioluminescence assay (Table 2). The protocol:
The nitrification inhibitory action of 2,7-dimethoxy-1,4-naphthoquinone was analyzed using a nitrifying bacterium in vitro (T. Iizumi, M. Mizumoto, K. Nakamura, A Bioluminescence assay using Nitrosomonas europaea for rapid and sensitive detection of nitrification inhibitors (1998) Appl. Environment. Microbiol., 64, 3656-3662).
A nitrifying bacterium (Nitrosomonas europaea IF014298) into which a luciferase gene derived from a bacterium (luxAB) had been introduced was aerobically cultured at 30° C. for 7 to 9 days in a P culture medium containing kanamycin (25 mg/l L). The obtained nitrifying bacterium was washed and then suspended in a fresh P culture medium to prepare a nitrifying bacterial suspension. This nitrifying bacterial suspension was allowed to stand in a dark place for 30 minutes or more before the experiment.
Here, the composition of the P culture medium consisted of 2.5 g of (NH4)2SO4, 0.7 g of KH2PO4, 13.5 g of Na2HPO4, 0.5 g of NaHCO3, 100 mg of MgSO4/7H2O, 5 mg of CaCl2/2H2O, 1 mg of Fe-EDTA, and 1 L of water, and the pH thereof was 8.0.
After mixing in vitro an aqueous solution of the above-described nitrifying bacterial suspension, consisting of 0.25 mL of the above-described nitrifying bacterial suspension and 0.2 mL of water, with 0.01 mL of a sample solution of 2,7-dimethoxy-1,4-naphthoquinone at various concentrations, the amount of bioluminescence associated with the nitrification reaction during culturing at 15° C. for 30 minutes was measured using a luminometer (manufactured by Turner Designs, Inc., model name: TD20/20), whereby the nitrification action was evaluated.
The amount of bioluminescence associated with the nitrification reaction decreases in a case where a substance having a nitrification inhibitory action is present in the sample solution. Therefore, the amount of luminescence in a case where each of the sample solutions of 2,7-dimethoxy-1,4-naphthoquinone at various concentrations was added to the aqueous solution of the nitrifying bacterial suspension was divided by the amount of luminescence in the case of only using the aqueous solution of the bacterial cell suspension without the sample solution being added, thereby obtaining a value as the nitrification inhibition rate. The results of measuring the nitrification inhibitory activity of the present compound at various concentrations are shown in FIG. 5.
In addition, the nitrification inhibitory activity of the 1,4-naphthoquinone derivative was measured in the same manner. In Table 2, R^1 to R^6 are each R^1 to R^6 in Formula (1), respectively.

The mark [1] stands for this setting: bioluminescence during culturing at 15° C. for 30 minutes, luxAB Nitrosomonas europaea suspension in P culture medium.

On to `O=C1C=CC(=O)c2ccccc21` [1,4-Naphthoquinone], for which the nitrification inhibitory activity entry is “have a nitrification inhibitory activity”. Further, under setting [1], the IC80 amounted to 4.4 µM.
As to `COC1=CC(=O)c2ccccc2C1=O` [2-Methoxy-1,4-naphthoquinone], the nitrification inhibitory activity entry was “have a nitrification inhibitory activity”. Moreover, the IC80 under setting [1] was 8.9 µM.
Regarding `NC1=C(Cl)C(=O)c2ccccc2C1=O` [2-Amino-3-chloro-1,4-naphthoquinone], the nitrification inhibitory activity result is recorded as “have a nitrification inhibitory activity”. Also, the IC80 under setting [1] was 13.3 µM.
For the compound `CC1=CC(=O)c2c(O)cccc2C1=O` [5-Hydroxy-2-methyl-1,4-naphthoquinone], the nitrification inhibitory activity entry is reported as “have a nitrification inhibitory activity”. Also, the IC80 under setting [1] came out at 0.5 µM.
Turning to `O=C1C=CC(=O)c2c(O)ccc(O)c21` [5,8-Dihydroxy-1,4-naphthoquinone], the nitrification inhibitory activity result is “have a nitrification inhibitory activity”. For the same compound, the IC80 (Nitrosomonas europaea) came out at 2.2 µM.
For the compound `COC1=CC(=O)c2ccc(OC)cc2C1=O` [Zeanone, 2,7-dimethoxy-1,4-naphthoquinone], the IC80 under setting [1] was 16.1 µM. Under “nitrification inhibition, dose response curve of FIG. 5, second value printed as ED50 in the same sentence, 15° C., 30 minutes”, the ED50 worked out at 16.1 µM. Moreover, the nitrification inhibitory activity result reads like this: (listed as 2,7-dimethoxy-1,4-naphthoquinone) “have a nitrification inhibitory activity”; (listed as zeanone) “excellent nitrification inhibitory action”.
Take `O=C1C(Cl)=C(Cl)C(=O)c2ccccc21` [2,3-Dichloro-1,4-naphthoquinone]: the nitrification inhibitory activity entry is given as “have a nitrification inhibitory activity”. Further, the IC80 under setting [1] stood at 2.2 µM.
Regarding `CC1=CC(=O)c2ccccc2C1=O` [2-Methyl-1,4-naphthoquinone], the nitrification inhibitory activity entry is listed as “have a nitrification inhibitory activity”. Also, the IC80 under setting [1] worked out at 4.4 µM.
Regarding `Cc1ccc2c(c1)C(=O)C=CC2=O` [6-Methyl-1,4-naphthoquinone], the nitrification inhibitory activity result is recorded as “have a nitrification inhibitory activity”. Also, under setting [1], the IC80 turned out to be 2.2 µM.
As to `O=C1C=C(O)C(=O)c2ccccc21` [2-Hydroxy-1,4-naphthoquinone], the nitrification inhibitory activity entry is on record as “does not have a nitrification inhibitory activity”. The IC80 under setting [1] is more than 100 µM.
Consider `O=C1C=C(Cl)C(=O)c2ccccc21` [2-Chloro-1,4-naphthoquinone], for which the nitrification inhibitory activity entry is reported as “have a nitrification inhibitory activity”. Also, the IC80 under setting [1] turned out to be 4 µM.
Turning to `O=C1C(Cl)=C(Cl)C(=O)c2c(O)ccc(O)c21` [2,3-Dichloro-5,8-dihydroxy-1,4-naphthoquinone], the nitrification inhibitory activity result is “have a nitrification inhibitory activity”. For the same compound, under setting [1], the IC80 was found to be 0.9 µM.
With `O=C1C=CC(=O)c2c(O)cccc21` [5-Hydroxy-1,4-naphthoquinone], the nitrification inhibitory activity entry was “have a nitrification inhibitory activity”. Besides, the IC80 under setting [1] was 1.1 µM.
